From patent US9919998B2, “Antibacterial agents: Nα-aroyl-N-aryl-phenylalaninamides” (priority 2014, dated 2018)
≈ marks a conversion by molar mass, not a printed value.

Legend:
Type in all cases: cell-based
[1] = system: Mycobacterium tuberculosis H37Rv; assay: Microplate Alamar Blue assay (MABA) MIC, M. tuberculosis; details: read-out: MIC Mycobacterium tuberculosis H37Rv
Description: (§1) Minimal inhibitory concentrations (MICs) in Mycobacterium tuberculosis H37Rv and Mycobacterium avium ATCC 25291 were quantified using microplate Alamar Blue assays as described (MABA; [Collins, L. & Franzblau, S. (1997) Microplate Alamar Blue assay versus BACTEC 460 system for high-throughput screening of compounds against Mycobacterium tuberculosis and Mycobacterium avium. Antimicrob. Agents Chemother. 41, 1004-1009]).

[2] = system: Mycobacterium smegmatis ATCC 19420; assay: Broth microdilution MIC, M. smegmatis; details: Mycolicibacterium smegmatis, ATCC19420, M. smegmatis ATCC 19420; read-out: MIC Mycobacterium smegmatis ATCC 19420
Description: MICs in Mycobacterium smegmatis ATCC 19420 and Mycobacterium smegmatis ATCC 19420 derivatives were quantified using broth microdilution assays as described [Clinical and Laboratory Standards Institute (CLSI/NCCLS) (2009) Methods for Dilution Antimicrobial Susceptibility Tests for Bacteria That Grow Aerobically; Approved Standard, Eighth Edition. CLIS Document M07-A8 (CLIS, Wayne Pa.)].

[3] = system: Vero E6 ATCC CRL1586 cells; assay: Mammalian-cell cytotoxicity, minimal cytotoxic concentration (CellTiter96)
Protocol: Minimal cytotoxic concentrations (MCCs) against mammalian cells in culture were determined using Vero E6 ATCC CRL1586 cells and the CellTiter96 assay kit (Promega, Inc.). […]

[4] = system: Mycobacterium avium ATCC 25291; assay: Microplate Alamar Blue assay (MABA) MIC, M. avium; details: ATCC25291, M. avium ATCC 25291
Description: as §1

## CCc1ccccc1C(=O)NC(Cc1ccccc1)C(=O)Nc1ccccc1C (stereo not shown) [I-123]
[1]
  MIC: > 50 µg/mL
[2]
  MIC: 1.56 µg/mL (≈ 4.04 µM)
[3]
  MCC mammalian cells Vero E6 ATCC CRL1586: >100 µg/mL
[4]
  MIC: > 50 µg/mL

## CCCc1ccccc1NC(=O)C(Cc1ccccc1)NC(=O)c1ccccc1 (stereo not shown) [I-126]
[1]
  MIC: > 50 µg/mL
[2]
  MIC: 1.56 µg/mL (≈ 4.04 µM)
[3]
  MCC mammalian cells Vero E6 ATCC CRL1586: 10 µg/mL
[4]
  MIC: > 50 µg/mL

## CCCc1cccc(NC(=O)C(Cc2ccccc2)NC(=O)c2ccccc2)c1C (stereo not shown) [I-127]
[1]
  MIC: > 50 µg/mL
[2]
  MIC: 3.12 µg/mL (≈ 7.8 µM)
[3]
  MCC mammalian cells Vero E6 ATCC CRL1586: 100 µg/mL
[4]
  MIC: > 50 µg/mL

## Cc1c(NC(=O)C(Cc2ccccc2)NC(=O)c2ccccc2)cccc1C(C)C (stereo not shown) [I-138]
[1]
  MIC: 6.25 µg/mL (≈ 15.6 µM)
[2]
  MIC: 0.78 µg/mL (≈ 1.95 µM)
[3]
  MCC mammalian cells Vero E6 ATCC CRL1586: >100 µg/mL
[4]
  MIC: > 50 µg/mL

## O=C(NC(Cc1ccccc1)C(=O)Nc1ccccc1C(F)F)c1ccccc1 (stereo not shown) [I-148]
[1]
  MIC: 6.25 µg/mL (≈ 15.8 µM)
[2]
  MIC: 3.12 µg/mL (≈ 7.92 µM)
[3]
  MCC mammalian cells Vero E6 ATCC CRL1586: 100 µg/mL
[4]
  MIC: > 50 µg/mL

## Cc1c(NC(=O)C(Cc2ccccc2)NC(=O)c2ccccc2)cccc1C(F)F (stereo not shown) [I-149]
[1]
  MIC: > 50 µg/mL
[2]
  MIC: 0.39 µg/mL (≈ 0.955 µM)
[3]
  MCC mammalian cells Vero E6 ATCC CRL1586: 20 µg/mL
[4]
  MIC: > 50 µg/mL

## O=C(NC(Cc1ccccc1)C(=O)Nc1ccccc1N1CCCC1)c1ccccc1 (stereo not shown) [I-192]
[1]
  MIC: 9.4 µg/mL (≈ 22.7 µM)
[2]
  MIC: 0.78 µg/mL (≈ 1.89 µM)
[3]
  MCC mammalian cells Vero E6 ATCC CRL1586: >100 µg/mL
[4]
  MIC: 25 µg/mL (≈ 60.5 µM)

## Cc1c(NC(=O)C(Cc2ccccc2)NC(=O)c2ccccc2)cccc1N1CCCC1 (stereo not shown) [I-193]
[1]
  MIC: 6.25 µg/mL (≈ 14.6 µM)
[2]
  MIC: 6.25 µg/mL (≈ 14.6 µM)
[3]
  MCC mammalian cells Vero E6 ATCC CRL1586: >100 µg/mL
[4]
  MIC: 50 µg/mL (≈ 117 µM)

## O=C(NC(Cc1ccccc1)C(=O)Nc1ccccc1-n1cncn1)c1ccccc1 (stereo not shown) [I-203]
[1]
  MIC: 12.5 µg/mL (≈ 30.4 µM)
[2]
  MIC: 0.78 µg/mL (≈ 1.9 µM)
[3]
  MCC mammalian cells Vero E6 ATCC CRL1586: >100 µg/mL
[4]
  MIC: 50 µg/mL (≈ 122 µM)

## O=C(NC(Cc1ccccc1)C(=O)Nc1cccc2[nH]ccc12)c1ccccc1 (stereo not shown) [II-27]
[1]
  MIC: 12.5 µg/mL (≈ 32.6 µM)
[2]
  MIC: 0.39 µg/mL (≈ 1.02 µM)
[3]
  MCC mammalian cells Vero E6 ATCC CRL1586: 41 µg/mL
[4]
  MIC: > 50 µg/mL

## O=C(NC(Cc1ccccc1)C(=O)Nc1cccc2sccc12)c1ccccc1 (stereo not shown) [II-46]
[1]
  MIC: 3.12 µg/mL (≈ 7.8 µM)
[2]
  MIC: 0.195 µg/mL (≈ 0.487 µM)
[3]
  MCC mammalian cells Vero E6 ATCC CRL1586: >100 µg/mL
[4]
  MIC: 3.12 µg/mL (≈ 7.8 µM)

## O=C(NC(Cc1ccccc1)C(=O)Nc1cccc2ccsc12)c1ccccc1 (stereo not shown) [II-47]
[1]
  MIC: 1.56 µg/mL (≈ 3.9 µM)
[2]
  MIC: 1.56 µg/mL (≈ 3.9 µM)
[3]
  MCC mammalian cells Vero E6 ATCC CRL1586: >100 µg/mL
[4]
  MIC: 3.12 µg/mL (≈ 7.8 µM)

## O=C(NC(Cc1ccccc1)C(=O)Nc1cccc2ccoc12)c1ccccc1 (stereo not shown) [II-65]
[1]
  MIC: > 50 µg/mL
[2]
  MIC: 0.39 µg/mL (≈ 1.01 µM)
[3]
  MCC mammalian cells Vero E6 ATCC CRL1586: 78 µg/mL
[4]
  MIC: > 50 µg/mL

## O=C(NC(Cc1ccc(O)cc1)C(=O)Nc1cccc2c1CCCC2)c1ccccc1 (stereo not shown) [IX-6, N-(3-(4-hydroxyphenyl)-1-oxo-1-((5,6,7,8-tetrahydronaphthalen-1-yl)amino)propan-2-yl)benzamide]
[1]
  MIC: 6.25 µg/mL (≈ 15.1 µM)
[2]
  MIC: 1.56 µg/mL (≈ 3.76 µM)
[3]
  MCC mammalian cells Vero E6 ATCC CRL1586: 21 µg/mL
[4]
  MIC: 6.25 µg/mL (≈ 15.1 µM)

## O=C(NC(Cc1ccccc1)C(=O)Nc1cccc2ccncc12)c1ccccc1 (stereo not shown) [IX-15, N-(1-(isoquinolin-8-ylamino)-1-oxo-3-phenylpropan-2-yl)benzamide]
[1]
  MIC: 6.25 µg/mL (≈ 15.8 µM)
[2]
  MIC: 0.78 µg/mL (≈ 1.97 µM)
[3]
  MCC mammalian cells Vero E6 ATCC CRL1586: 85 µg/mL
[4]
  MIC: 25 µg/mL (≈ 63.2 µM)

## O=C(NC(Cc1ccc(O)cc1)C(=O)Nc1cccc2ccncc12)c1ccccc1 (stereo not shown) [IX-18, N-(3-(4-hydroxyphenyl)-1-(isoquinolin-8-ylamino)-1-oxopropan-2-yl)benzamide]
[1]
  MIC: 6.25 µg/mL (≈ 15.2 µM)
[2]
  MIC: 0.39 µg/mL (≈ 0.948 µM)
[3]
  MCC mammalian cells Vero E6 ATCC CRL1586: >100 µg/mL
[4]
  MIC: 12.5 µg/mL (≈ 30.4 µM)

## O=C(NC(Cc1ccc(O)cc1)C(=O)Nc1cccc2c1OCCO2)c1ccccc1 (stereo not shown) [IX-21, N-(1-((2,3-dihydrobenzo[b][1,4]dioxin-5-yl)amino)-3-(4-hydroxyphenyl)-1-oxopropan-2-yl)benzamide]
[1]
  MIC: 6.25 µg/mL (≈ 14.9 µM)
[2]
  MIC: 0.78 µg/mL (≈ 1.86 µM)
[3]
  MCC mammalian cells Vero E6 ATCC CRL1586: >100 µg/mL
[4]
  MIC: 6.25 µg/mL (≈ 14.9 µM)

## COc1ccccc1NC(=O)C(Cc1ccc(O)cc1)NC(=O)c1ccccc1 (stereo not shown) [IX-26, N-(3-(4-hydroxyphenyl)-1-((2-methoxyphenyl)amino)-1-oxopropan-2-yl)benzamide]
[1]
  MIC: 25 µg/mL (≈ 64 µM)
[2]
  MIC: 1.25 µg/mL (≈ 3.2 µM)
[3]
  MCC mammalian cells Vero E6 ATCC CRL1586: >100 µg/mL
[4]
  MIC: 50 µg/mL (≈ 128 µM)

## Cc1ccccc1NC(=O)C(Cc1ccc(O)cc1)NC(=O)c1cccs1 (stereo not shown) [IX-28, N-(3-(4-hydroxyphenyl)-1-oxo-1-(o-tolylamino)propan-2-yl)thiophene-2-carboxamide]
[1]
  MIC: 12.5 µg/mL (≈ 32.9 µM)
[2]
  MIC: 0.39 µg/mL (≈ 1.03 µM)
[3]
  MCC mammalian cells Vero E6 ATCC CRL1586: 80 µg/mL
[4]
  MIC: 12.5 µg/mL (≈ 32.9 µM)

## COc1ccccc1NC(=O)C(Cc1ccccc1)NC(=O)c1cccs1 (stereo not shown) [IX-29, N-(1-((2-methoxyphenyl)amino)-1-oxo-3-phenylpropan-2-yl)thiophene-2-carboxamide]
[1]
  MIC: 3.12 µg/mL (≈ 8.21 µM)
[2]
  MIC: 0.195 µg/mL (≈ 0.513 µM)
[3]
  MCC mammalian cells Vero E6 ATCC CRL1586: >100 µg/mL
[4]
  MIC: 6.25 µg/mL (≈ 16.4 µM)

## O=C(NC(Cc1ccccc1)C(=O)Nc1cccc2cnccc12)c1cccs1 (stereo not shown) [IX-30, N-(1-(isoquinolin-5-ylamino)-1-oxo-3-phenylpropan-2-yl)thiophene-2-carboxamide]
[1]
  MIC: 3.12 µg/mL (≈ 7.78 µM)
[2]
  MIC: 0.195 µg/mL (≈ 0.486 µM)
[3]
  MCC mammalian cells Vero E6 ATCC CRL1586: 37 µg/mL
[4]
  MIC: 6.25 µg/mL (≈ 15.6 µM)

## O=C(NC(Cc1ccccc1)C(=O)Nc1cccc2c1OCCO2)c1cccs1 (stereo not shown) [IX-31, N-(1-((2,3-dihydrobenzo[b][1,4]dioxin-5-yl)amino)-1-oxo-3-phenylpropan-2-yl)thiophene-2-carboxamide]
[1]
  MIC: 3.12 µg/mL (≈ 7.65 µM)
[2]
  MIC: 0.195 µg/mL (≈ 0.477 µM)
[3]
  MCC mammalian cells Vero E6 ATCC CRL1586: 30 µg/mL
[4]
  MIC: 3.12 µg/mL (≈ 7.65 µM)

## COc1ccccc1NC(=O)C(Cc1ccc(O)cc1)NC(=O)c1cccs1 (stereo not shown) [IX-32, N-(3-(4-hydroxyphenyl)-1-((2-methoxyphenyl)amino)-1-oxopropan-2-yl)thiophene-2-carboxamide]
[1]
  MIC: 12.5 µg/mL (≈ 31.5 µM)
[2]
  MIC: 0.195 µg/mL (≈ 0.492 µM)
[3]
  MCC mammalian cells Vero E6 ATCC CRL1586: 100 µg/mL
[4]
  MIC: 6.25 µg/mL (≈ 15.8 µM)

## O=C(NC(Cc1ccc(O)cc1)C(=O)Nc1cccc2cnccc12)c1cccs1 (stereo not shown) [IX-33, N-(3-(4-hydroxyphenyl)-1-(isoquinolin-5-ylamino)-1-oxopropan-2-yl)thiophene-2-carboxamide]
[1]
  MIC: 12.5 µg/mL (≈ 29.9 µM)
[2]
  MIC: 0.195 µg/mL (≈ 0.467 µM)
[3]
  MCC mammalian cells Vero E6 ATCC CRL1586: 80 µg/mL
[4]
  MIC: 6.25 µg/mL (≈ 15 µM)

## O=C(NC(Cc1ccc(O)cc1)C(=O)Nc1cccc2c1OCCO2)c1cccs1 (stereo not shown) [IX-34, N-(1-((2,3-dihydrobenzo[b][1,4]dioxin-5-yl)amino)-3-(4-hydroxyphenyl)-1-oxopropan-2-yl)thiophene-2-carboxamide]
[1]
  MIC: 6.25 µg/mL (≈ 14.7 µM)
[2]
  MIC: 0.39 µg/mL (≈ 0.919 µM)
[3]
  MCC mammalian cells Vero E6 ATCC CRL1586: 85 µg/mL
[4]
  MIC: 3.12 µg/mL (≈ 7.36 µM)

## COc1ncccc1NC(=O)C(Cc1ccccc1)NC(=O)c1ccccc1 (stereo not shown) [IX-38, N-(1-((2-methoxypyridin-3-yl)amino)-1-oxo-3-phenylpropan-2-yl)benzamide]
[1]
  MIC: 6.25 µg/mL (≈ 16.6 µM)
[2]
  MIC: 0.39 µg/mL (≈ 1.04 µM)
[3]
  MCC mammalian cells Vero E6 ATCC CRL1586: 38 µg/mL
[4]
  MIC: 6.25 µg/mL (≈ 16.6 µM)

## O=C(NC(Cc1ccccc1)C(=O)Nc1cccc2cn[nH]c12)c1ccccc1 (stereo not shown) [IX-39, N-(1-((1H-indazol-7-yl)amino)-1-oxo-3-phenylpropan-2-yl)benzamide]
[1]
  MIC: > 50 µg/mL
[2]
  MIC: 1.56 µg/mL (≈ 4.06 µM)
[3]
  MCC mammalian cells Vero E6 ATCC CRL1586: 20 µg/mL
[4]
  MIC: > 50 µg/mL

## O=C(NC(Cc1ccc(O)cc1)C(=O)Nc1cccc2cc[nH]c12)c1ccccc1 (stereo not shown) [IX-40, N-(1-((1H-indol-7-yl)amino)-3-(4-hydroxyphenyl)-1-oxopropan-2-yl)benzamide]
[1]
  MIC: 12.5 µg/mL (≈ 31.3 µM)
[2]
  MIC: 0.39 µg/mL (≈ 0.976 µM)
[3]
  MCC mammalian cells Vero E6 ATCC CRL1586: 78 µg/mL
[4]
  MIC: 12.5 µg/mL (≈ 31.3 µM)
